ChEMBL document CHEMBL1155583, “Steroidal saponins from Dracaena surculosa” (J Nat Prod, 2000)
In brackets after ≈: the same amount, converted by molar mass.

System: HL-60
Experiment: Cytotoxicity against human HL60 cells by MTT assay
Type: functional, cell-based

SMILES	IC50 [µg/mL]
C[C@H]1CC[C@@]2(OC1)O[C@H]1C[C@H]3[C@@H]4CC=C5C[C@@H](O)C[C@@H](O[C@@H]6O[C@H](C)[C@H](O)[C@H](O)[C@H]6O[C@@H]6O[C@@H](C)[C@H](O)[C@@H](O)[C@H]6O)[C@]5(C)[C@H]4CC[C@]3(C)[C@H]1[C@@H]2C	8.7 (≈ 12 µM)
C[C@@H]1CC[C@@]2(OC1)O[C@H]1C[C@H]3[C@@H]4CC=C5C[C@@H](O[C@@H]6O[C@H](CO)[C@@H](O)[C@H](O)[C@H]6O[C@@H]6O[C@@H](C)[C@H](O)[C@@H](O)[C@H]6O)CC[C@]5(C)[C@H]4CC[C@]3(C)[C@@]1(O)[C@@H]2C	5.2 (≈ 7.04 µM)
C[C@@H]1CC[C@@]2(OC1)O[C@H]1C[C@H]3[C@@H]4CC=C5C[C@@H](O[C@@H]6O[C@H](CO)[C@@H](O[C@@H]7O[C@@H](C)[C@H](O)[C@@H](O)[C@H]7O)[C@H](O)[C@H]6O[C@@H]6O[C@@H](C)[C@H](O)[C@@H](O)[C@H]6O)CC[C@]5(C)[C@H]4CC[C@]3(C)[C@@]1(O)[C@@H]2C	4.2 (≈ 4.75 µM)
